Where two headings read alike, the source gives them in different places. Ends that are not written are not given here.
Columns and labels:
[1] = in SDS, as previously reported, cited from earlier work
Description: Table 1 SMAP-29 derivatives used in this study and others with sequences and defining characteristics. ^a Estimated charge calculated from Innovagen’s peptide property calculator. ^b The helical activity of peptides as previously reported in the referenced manuscripts. ND: not determined. | column: % Helical (SDS) ^b

S. aureus 43300 (MRSA) = conditions: cited from earlier work
Description: (§1) Table 2 MIC Values (µM) for SMAP-29 Derivatives. * Previously reported data from reference r comparison. | column: OV3 *; Cu-1 *; Cu-2 *; Cu-3 *; Cu-4 * || Table 4 MIC values for antimicrobial peptides utilized in this study. MIC values for a variety of the presented peptides have been previously determined in alternative conditions; values here are the result of experimental efforts to determine MICs under the conditions utilized for further study of FIC potential, with the exception of Sub5 and Sub5-01, previously characterized in our laboratory, w | column: Sub5; Sub5-01

A. baumannii BAA747 [2] = conditions: cited from earlier work
Description: as §1

E. faecium 700221 (VRE) = conditions: cited from earlier work
Description: as §1

P. aeruginosa 27583 = conditions: cited from earlier work
Description: as §1

K. pneumoniae 700603 = conditions: cited from earlier work
Description: as §1

E. coli 25922 [3] = conditions: cited from earlier work
Description: as §1

MRSA 43300 [4] = test system: MRSA 43300; set-up: method as in ref [13] of the supplement ([11] in main text); conditions: single peptide on the FIC plate, cited from earlier work
A. baumannii BAA747 [5] = test system: A. baumannii BAA747; set-up: method as in ref 13 of the supplement ([11] in main text); conditions: Acinetobacter baumannii, single peptide on the FIC plate, ref 13 of the supplement ([11] in main text), cited from earlier work
MRSA 43300 [6] = test: FIC of peptide pairs (two-way dilution, 96-well plate); assay type: cell-based, S. aureus; conditions: single peptide on the FIC plate
Experimental: (§2) Determining MIC values informed decisions on testing peptides in combination. Fractional inhibitory concentrations determine the ability of test articles to act in concert against a pathogen. FIC determination is experimentally similar to MIC determination, except one test article is diluted down the wells and another is diluted across the wells of the 96-well plate in order to test the synergism of two peptides. […] Synergy is defined as an FIC of less than or equal to 0.5, meaning there is a four-fold reduction in the concentration of each peptide required for inhibition. Any number above 4 indicates a deleterious interaction that reduces the effectiveness of each peptide, and a value between 0.5 and 1 can be considered additive (Equation (2)).
(§3) Fractional inhibitory concentrations (FICs) were determined in a manner similar to MIC determinations but with serial dilutions of two peptides running both horizontally and vertically across the 96-well plate. Determination of the FIC can be seen in Equation (2), where FIC is the fractional inhibitory concentration, [A] is the concentration of substrate A at MIC in combination, [B] is the concentration of substrate B at MIC in combination, and MICA and MICB are the MIC of substrate A and substrate B, respectively. FIC = fractional inhibitory concentration, [A] = concentration of A at MIC in combination, [B] = concentration of B at MIC in combination, MICA = minimum inhibitory concentration of A, and MICB = minimum inhibitory concentration of B. When FIC ≤ 0.5 the results are synergistic. If FIC > 4, the results are antagonistic, and when FIC > 0.5, the results are indifferent or additive. (2) FIC=[A]/MICA+ [B]/MICB

E. coli 25922 [7] = test: as above; assay type: cell-based, Escherichia coli; conditions: single peptide on the FIC plate
Experimental: as §2, §3

E. coli 25922 [8] = conditions: single peptide on the FIC plate, cited from earlier work
Description: Figure 6 Summary of peptide interactions in E. coli 25922 from data presented in Results and Supplemental Material. Synergistic (or non-synergistic) interactions for CP10A, TempL, OV3-00 and OV3-01 with other peptides are grouped as shown. Parental and ATCUN derivatives are outlined in the same shape with the average FIC value shown in parentheses. TEXT PRINTED IN THE PICTURE: Sub5: E. coli 25922, CP10A, Synergistic: (0.4); E. coli 25922, TempL, Additive/Indifferent: (1) | Sub5-01: E. coli 25922, CP10A, Synergistic: (0.42); E. coli 25922, TempL, Additive/Indifferent: (0.78) | Mag2-01: E. coli ... || page 3: For Tables S3-S10: FIC Index = [A]/[MICA] + [B]/[MICB], where [A] and [B] are the concentrations of respective peptides at which no growth was observed when dosed in combination, and [MICA] and [MICB] are the concentrations where no growth was observed when dosed separately. The data from each experiment repeated in duplicate or triplicate is shown and bolded data in the final row is the average FIC value. Error is reported as the standard deviation of the mean. Table S3. FIC values for Interactions of CP10A and TempL in E. coli 25922. * Previously reported data from reference for ... || page 4: Table S4. FIC values for the non-ATCUN containing parental peptides in E. coli 25922. A CP10A CP10A CP10A TempL TempL TempL TempL B Sub5 13 Mag2 OV3-00 Sub5 TRP Mag2 OV3-00 [A] 2/4/4 2/2/1 2/2/0.5 2/2/2 1/1/1 0.25/1/2 2/2/2 MICA 16/16/16 4/4/2 4/4/4 4/4/4 2/4/2 4/4/4 16/16/16 [B] 1/0.5/0.25 2/2/2 0.5/1/1 4/4/4 4/4/4 4/2/0.125 4/1/1 MICB 4/2/4 4/4/4 2/2/2 8/8/8 8/8/8 8/8/8 8/2/2 FIC 0.375/0.328/0.5 1/1/1 0.75/1/0.625 1/1/1 1/0.75/1 0.56/0.5/0.52 0.625/0.625/0.625 FICAvg 0.40 ± 0.04 1 0.78 ± 0.2 1 0.9 ± 0.14 0.53 ± 0.03 0.625 Table S5. FIC Values for ATCUN peptide derivatives in MRSA 433 ...

[9] = previously reported data, ref [8]
[10] = P. aeruginosa (27583), previously reported data, ref [8]
[11] = replicate 1, ref [13] of the supplement ([11] in main text)
[12] = replicate 2, ref [13] of the supplement ([11] in main text)
[13] = replicate 3, ref [13] of the supplement ([11] in main text)
[14] = taken from earlier work, ref [7]
[15] = P. aeruginosa 27583, taken from earlier work, ref [7]

GGHGIRRIIRKIIHIIKKGGC-NH2 [Cu-2, ATCUN-OV3 derivative from the authors' earlier work]
% Helical (SDS) ([1]; ref [8]): 56% [8] | MIC (S. aureus 43300 (MRSA); [9]): 4 µM | MIC (A. baumannii BAA747 [2]; [9]): 9.3 µM | MIC (E. faecium 700221 (VRE); [9]): 8 µM | MIC (P. aeruginosa 27583; [10]): 12 µM | MIC (K. pneumoniae 700603; [9]): >16 µM | MIC (E. coli 25922 [3]; [9]): 3 µM

GGHGIRRIIRKIIHIKK-NH2 [Cu-1, ATCUN-OV3 derivative from the authors' earlier work]
% Helical (SDS) ([1]; ref [8]): 14% [8] | MIC (S. aureus 43300 (MRSA); [9]): 16 µM | MIC (A. baumannii BAA747 [2]; [9]): 2.7 µM | MIC (E. faecium 700221 (VRE); [9]): 16 µM | MIC (P. aeruginosa 27583; [10]): >16 µM | MIC (K. pneumoniae 700603; [9]): 16 µM | MIC (E. coli 25922 [3]; [9]): >16 µM

GGHIRRIIRKIIHIIKK-NH2 [Cu-3, ATCUN-OV3 derivative from the authors' earlier work]
% Helical (SDS) ([1]; ref [8]): 35% [8] | MIC (S. aureus 43300 (MRSA); [9]): 16 µM | MIC (A. baumannii BAA747 [2]; [9]): 5.3 µM | MIC (E. faecium 700221 (VRE); [9]): 8 µM | MIC (P. aeruginosa 27583; [10]): >16 µM | MIC (K. pneumoniae 700603; [9]): 16 µM | MIC (E. coli 25922 [3]; [9]): >16 µM

GGHIRRIIRKIIHIIKKGGC-NH2 [Cu-4, ATCUN-OV3 derivative from the authors' earlier work]
% Helical (SDS) ([1]; ref [8]): 64% [8] | MIC (S. aureus 43300 (MRSA); [9]): 1.5 µM | MIC (A. baumannii BAA747 [2]; [9]): 10.7 µM | MIC (E. faecium 700221 (VRE); [9]): 3.3 µM | MIC (P. aeruginosa 27583; [10]): 4 µM | MIC (K. pneumoniae 700603; [9]): 8 µM | MIC (E. coli 25922 [3]; [9]): 1.3 µM

GGHRRWKIVVIRWRR-NH2 [Sub5-01, ATCUN derivative of Sub5, previously characterized by the authors]
MICA/MICB, concentration with no growth when dosed separately (MRSA 43300 [4]; [11]): 16 µM | MICA/MICB, concentration with no growth when dosed separately (MRSA 43300 [4]; [12]): 16 µM | MICA/MICB, concentration with no growth when dosed separately (MRSA 43300 [4]; [13]): 16 µM | MICA/MICB, concentration with no growth when dosed separately (A. baumannii BAA747 [5]; replicate 1): 1 µM | MICA/MICB, concentration with no growth when dosed separately (A. baumannii BAA747 [5]; replicate 2): 2 µM | MICA/MICB, concentration with no growth when dosed separately (A. baumannii BAA747 [5]; replicate 3): 1 µM | MICA/MICB, concentration with no growth when dosed separately (MRSA 43300 [6]; replicate 1): 4 µM | MICA/MICB, concentration with no growth when dosed separately (MRSA 43300 [6]; replicate 2): 4 µM | MICA/MICB, concentration with no growth when dosed separately (MRSA 43300 [6]; replicate 3): 4 µM | MICA/MICB, concentration with no growth when dosed separately (E. coli 25922 [7]; replicate 1): 8 µM | MICA/MICB, concentration with no growth when dosed separately (E. coli 25922 [7]; replicate 2): 8 µM | MICA/MICB, concentration with no growth when dosed separately (E. coli 25922 [7]; replicate 3): 8 µM | MIC (S. aureus 43300 (MRSA); [14]): 1 µM | MIC (A. baumannii BAA747 [2]; [14]): 1 µM | MIC (E. faecium 700221 (VRE); [14]): 0.4 µM | MIC (P. aeruginosa 27583; [15]): 2 µM | MIC (K. pneumoniae 700603; [14]): 2 µM | MIC (E. coli 25922 [3]; [14]): 2.7 µM | MICA/MICB, concentration with no growth when dosed separately (E. coli 25922 [8]; [11]): 4 µM | MICA/MICB, concentration with no growth when dosed separately (E. coli 25922 [8]; [12]): 4 µM | MICA/MICB, concentration with no growth when dosed separately (E. coli 25922 [8]; [13]): 4 µM

IRRIIRKIIHIIKK-NH2 [OV3, SMAP-29 derivative, parental peptide of Cu-1 to Cu-4]
% Helical (SDS) ([1]; ref [8]): 38% [8] | MIC (S. aureus 43300 (MRSA); [9]): >16 µM | MIC (A. baumannii BAA747 [2]; [9]): 1 µM | MIC (E. faecium 700221 (VRE); [9]): 16 µM | MIC (P. aeruginosa 27583; [10]): 16 µM | MIC (K. pneumoniae 700603; [9]): >16 µM | MIC (E. coli 25922 [3]; [9]): >16 µM

KNLRRIIRKIIHIIKKYGPTILRIIRIIG [OV, SMAP-29 derivative]
% Helical (SDS) ([1]; ref [17]): 86% [17]

RRWKIVVIRWRR-NH2 [Sub5, bactenecin derivative]
MICA/MICB, concentration with no growth when dosed separately (MRSA 43300 [4]; [11]): 1 µM | MICA/MICB, concentration with no growth when dosed separately (MRSA 43300 [4]; [12]): 2 µM | MICA/MICB, concentration with no growth when dosed separately (MRSA 43300 [4]; [13]): 2 µM | MICA/MICB, concentration with no growth when dosed separately (A. baumannii BAA747 [5]; replicate 1): 2 µM | MICA/MICB, concentration with no growth when dosed separately (A. baumannii BAA747 [5]; replicate 2): 2 µM | MICA/MICB, concentration with no growth when dosed separately (A. baumannii BAA747 [5]; replicate 3): 2 µM | MICA/MICB, concentration with no growth when dosed separately (MRSA 43300 [6]; replicate 1): 4 µM | MICA/MICB, concentration with no growth when dosed separately (MRSA 43300 [6]; replicate 2): 4 µM | MICA/MICB, concentration with no growth when dosed separately (MRSA 43300 [6]; replicate 3): 4 µM | MICA/MICB, concentration with no growth when dosed separately (E. coli 25922 [7]; replicate 1): 8 µM | MICA/MICB, concentration with no growth when dosed separately (E. coli 25922 [7]; replicate 2): 8 µM | MICA/MICB, concentration with no growth when dosed separately (E. coli 25922 [7]; replicate 3): 8 µM | MIC (S. aureus 43300 (MRSA); [14]): 2 µM | MIC (A. baumannii BAA747 [2]; [14]): 0.8 µM | MIC (E. faecium 700221 (VRE); [14]): 0.5 µM | MIC (P. aeruginosa 27583; [15]): 4 µM | MIC (K. pneumoniae 700603; [14]): 1.7 µM | MIC (E. coli 25922 [3]; [14]): 3.3 µM | MICA/MICB, concentration with no growth when dosed separately (E. coli 25922 [8]; [11]): 4 µM | MICA/MICB, concentration with no growth when dosed separately (E. coli 25922 [8]; [12]): 2 µM | MICA/MICB, concentration with no growth when dosed separately (E. coli 25922 [8]; [13]): 4 µM

Reference: PMC9692552, “Activity and Synergy of Cu-ATCUN Antimicrobial Peptides” (International Journal of Molecular Sciences, 2022)
